Laboratory results from patent US10526316B2, “Quinoxaline and pyridopyrazine derivatives as PI3Kβ inhibitors” (Janssen Pharmaceutica NV, priority 2015, dated 2020).
Where two headings read alike, the source gives them in different places.

Legend:
PI3Kβ = target: T1, PI3Kβ (Homo sapiens, UniProt P42338); assay: Enzyme binding assay (KINOMEscan, DiscoveRx); conditions: PIK3Cβ_h, read-out: Kd PIK3Cβ_h
T1 construct: purchased DiscoveRx Corporation, San Diego (contract service, KINOMEscan)
Procedure, shortened: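 Kinase binding affinities were measured with KINOMEscan technology. Results are given as Kd, the inhibitor binding constant, in nM.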

PI3Kδ = target: T2, PI3Kδ (Homo sapiens, UniProt O00329); assay: Enzyme binding assay (KINOMEscan, DiscoveRx); conditions: PIK3Cδ_h
T2 construct: purchased DiscoveRx Corporation, San Diego (contract service, KINOMEscan)
T2 sequence (O00329 1-1044): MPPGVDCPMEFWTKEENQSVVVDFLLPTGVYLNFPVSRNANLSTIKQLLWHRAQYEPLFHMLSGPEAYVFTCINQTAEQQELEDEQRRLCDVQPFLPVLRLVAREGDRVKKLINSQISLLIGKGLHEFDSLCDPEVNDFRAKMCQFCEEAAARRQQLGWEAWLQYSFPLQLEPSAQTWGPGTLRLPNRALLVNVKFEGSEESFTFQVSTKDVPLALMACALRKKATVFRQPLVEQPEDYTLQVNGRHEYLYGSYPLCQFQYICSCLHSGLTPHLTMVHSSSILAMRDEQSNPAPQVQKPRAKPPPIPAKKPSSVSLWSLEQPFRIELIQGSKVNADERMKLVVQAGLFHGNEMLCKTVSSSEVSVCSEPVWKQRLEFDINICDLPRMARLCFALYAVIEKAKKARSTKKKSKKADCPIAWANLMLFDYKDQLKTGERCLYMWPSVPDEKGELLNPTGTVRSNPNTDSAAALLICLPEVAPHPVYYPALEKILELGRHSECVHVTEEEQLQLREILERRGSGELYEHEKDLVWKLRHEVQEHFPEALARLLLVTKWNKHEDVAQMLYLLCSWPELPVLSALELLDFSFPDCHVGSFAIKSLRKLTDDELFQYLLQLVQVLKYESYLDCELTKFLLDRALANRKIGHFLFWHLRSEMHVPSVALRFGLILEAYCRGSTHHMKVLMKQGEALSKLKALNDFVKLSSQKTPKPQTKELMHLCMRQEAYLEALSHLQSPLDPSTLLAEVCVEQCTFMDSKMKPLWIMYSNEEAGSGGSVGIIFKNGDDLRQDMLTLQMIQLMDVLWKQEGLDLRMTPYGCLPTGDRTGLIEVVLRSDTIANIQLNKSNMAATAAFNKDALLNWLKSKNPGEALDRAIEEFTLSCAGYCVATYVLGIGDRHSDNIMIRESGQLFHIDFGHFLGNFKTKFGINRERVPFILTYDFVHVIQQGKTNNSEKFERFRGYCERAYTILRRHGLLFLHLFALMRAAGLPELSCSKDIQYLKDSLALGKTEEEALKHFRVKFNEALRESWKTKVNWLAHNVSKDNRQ
Procedure, shortened: (§1)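 Binding affinities were measured on the KINOMEscan platform.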

kinase enzymes [1] = target: T3, kinase enzymes (Homo sapiens, UniProt P42336); assay: Enzyme binding assay (KINOMEscan, DiscoveRx), further kinases of Table A; conditions: PIK3Cα_h
T3 construct: purchased DiscoveRx Corporation, San Diego (contract service, KINOMEscan)
Procedure, shortened: as §1

kinase enzymes [2] = target: T4, kinase enzymes (Homo sapiens, UniProt P42345); assay: as above; conditions: MTOR_h
T4 construct: purchased DiscoveRx Corporation, San Diego (contract service, KINOMEscan)
Procedure, shortened: as §1

kinase enzymes [3] = target: T5, kinase enzymes (Homo sapiens, UniProt P48736); assay: as above; conditions: PIK3Cγ_h
T5 construct: purchased DiscoveRx Corporation, San Diego (contract service, KINOMEscan)
Procedure, shortened: as §1

[4] = tested on: Akt phosphorylated at Ser473 in PC-3 cells; assay: Cellular assay: phosphorylation of Akt at Ser473 in PC-3 cells (MSD ELISA); format: cell-based; conditions: PC-3 cells, 60 min compound incubation, MSD ELISA, read-out: IC50 pAkt_S473
Procedure, shortened: (§2)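 Compound treatment of PC-3 cells lasted 60 min at 37° C (0.3% DMSO). Lysates were then applied to plates carrying capture antibodies for the relevant phospho-site, and bound Akt was detected with an electrochemiluminescent anti-total Akt antibody; IC50s derive from five-point curves.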

[5] = tested on: Akt phosphorylated at Thr308 in PC-3 cells; assay: Cellular assay: phosphorylation of Akt at Thr308 in PC-3 cells (MSD ELISA); format: cell-based; conditions: PC-3 cells, 60 min compound incubation, MSD ELISA, read-out: IC50 pAkt_Thr308
Procedure, shortened: as §2

T3 sequence (P42336 whole entry): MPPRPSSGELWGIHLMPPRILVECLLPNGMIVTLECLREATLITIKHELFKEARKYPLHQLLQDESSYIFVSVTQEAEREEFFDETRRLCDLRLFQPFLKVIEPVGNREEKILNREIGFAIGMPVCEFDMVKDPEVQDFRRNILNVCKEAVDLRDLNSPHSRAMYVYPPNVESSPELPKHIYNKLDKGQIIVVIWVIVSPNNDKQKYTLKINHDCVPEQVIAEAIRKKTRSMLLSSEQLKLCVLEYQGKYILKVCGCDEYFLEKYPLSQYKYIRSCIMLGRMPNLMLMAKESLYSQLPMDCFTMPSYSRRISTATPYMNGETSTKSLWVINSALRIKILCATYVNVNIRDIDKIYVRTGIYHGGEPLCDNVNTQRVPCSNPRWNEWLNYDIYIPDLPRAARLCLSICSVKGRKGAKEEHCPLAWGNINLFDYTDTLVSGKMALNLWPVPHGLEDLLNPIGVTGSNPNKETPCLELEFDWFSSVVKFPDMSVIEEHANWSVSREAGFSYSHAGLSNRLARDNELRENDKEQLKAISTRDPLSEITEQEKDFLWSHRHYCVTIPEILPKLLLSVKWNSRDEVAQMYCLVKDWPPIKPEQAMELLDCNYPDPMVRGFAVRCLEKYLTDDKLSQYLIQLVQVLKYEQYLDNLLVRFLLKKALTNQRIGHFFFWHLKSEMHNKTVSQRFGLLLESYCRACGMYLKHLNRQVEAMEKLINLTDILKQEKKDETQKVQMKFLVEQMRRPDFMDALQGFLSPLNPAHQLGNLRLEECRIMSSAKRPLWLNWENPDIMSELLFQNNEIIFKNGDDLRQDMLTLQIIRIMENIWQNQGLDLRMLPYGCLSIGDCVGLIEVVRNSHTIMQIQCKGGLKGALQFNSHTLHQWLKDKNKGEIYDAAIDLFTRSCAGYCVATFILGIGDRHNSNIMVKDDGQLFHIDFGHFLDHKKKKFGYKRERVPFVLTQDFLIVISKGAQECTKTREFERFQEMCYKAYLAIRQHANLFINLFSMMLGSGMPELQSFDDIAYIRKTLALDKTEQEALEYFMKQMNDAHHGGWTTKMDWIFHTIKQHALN
T5 sequence (P48736 whole entry): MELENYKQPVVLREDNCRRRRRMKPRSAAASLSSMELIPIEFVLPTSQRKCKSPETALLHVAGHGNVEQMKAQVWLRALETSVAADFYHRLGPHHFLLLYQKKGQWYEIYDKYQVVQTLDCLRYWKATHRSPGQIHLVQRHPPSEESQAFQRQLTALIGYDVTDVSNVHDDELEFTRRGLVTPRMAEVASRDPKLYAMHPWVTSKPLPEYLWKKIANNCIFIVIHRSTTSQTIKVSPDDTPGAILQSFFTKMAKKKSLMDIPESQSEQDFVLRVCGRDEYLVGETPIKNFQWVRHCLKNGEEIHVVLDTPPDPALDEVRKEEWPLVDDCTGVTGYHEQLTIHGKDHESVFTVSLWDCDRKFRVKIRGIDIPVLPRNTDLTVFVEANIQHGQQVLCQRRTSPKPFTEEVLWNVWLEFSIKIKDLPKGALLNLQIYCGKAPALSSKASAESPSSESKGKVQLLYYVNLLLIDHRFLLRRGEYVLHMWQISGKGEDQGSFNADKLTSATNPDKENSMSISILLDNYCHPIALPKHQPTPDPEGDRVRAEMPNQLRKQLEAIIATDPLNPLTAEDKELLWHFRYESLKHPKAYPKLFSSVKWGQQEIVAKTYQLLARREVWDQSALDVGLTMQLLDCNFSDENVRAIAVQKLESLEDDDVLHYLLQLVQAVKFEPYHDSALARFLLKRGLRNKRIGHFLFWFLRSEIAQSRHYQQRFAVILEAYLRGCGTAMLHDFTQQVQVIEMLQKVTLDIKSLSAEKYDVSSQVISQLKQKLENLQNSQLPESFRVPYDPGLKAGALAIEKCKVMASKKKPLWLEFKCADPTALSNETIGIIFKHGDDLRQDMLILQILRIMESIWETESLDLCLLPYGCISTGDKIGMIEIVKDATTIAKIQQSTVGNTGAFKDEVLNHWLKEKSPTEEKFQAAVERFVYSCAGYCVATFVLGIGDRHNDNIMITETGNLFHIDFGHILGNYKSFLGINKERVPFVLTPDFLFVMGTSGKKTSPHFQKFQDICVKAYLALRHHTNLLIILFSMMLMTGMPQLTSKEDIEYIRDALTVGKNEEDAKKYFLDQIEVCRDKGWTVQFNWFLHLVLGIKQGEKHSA
T1 sequence (P42338 whole entry): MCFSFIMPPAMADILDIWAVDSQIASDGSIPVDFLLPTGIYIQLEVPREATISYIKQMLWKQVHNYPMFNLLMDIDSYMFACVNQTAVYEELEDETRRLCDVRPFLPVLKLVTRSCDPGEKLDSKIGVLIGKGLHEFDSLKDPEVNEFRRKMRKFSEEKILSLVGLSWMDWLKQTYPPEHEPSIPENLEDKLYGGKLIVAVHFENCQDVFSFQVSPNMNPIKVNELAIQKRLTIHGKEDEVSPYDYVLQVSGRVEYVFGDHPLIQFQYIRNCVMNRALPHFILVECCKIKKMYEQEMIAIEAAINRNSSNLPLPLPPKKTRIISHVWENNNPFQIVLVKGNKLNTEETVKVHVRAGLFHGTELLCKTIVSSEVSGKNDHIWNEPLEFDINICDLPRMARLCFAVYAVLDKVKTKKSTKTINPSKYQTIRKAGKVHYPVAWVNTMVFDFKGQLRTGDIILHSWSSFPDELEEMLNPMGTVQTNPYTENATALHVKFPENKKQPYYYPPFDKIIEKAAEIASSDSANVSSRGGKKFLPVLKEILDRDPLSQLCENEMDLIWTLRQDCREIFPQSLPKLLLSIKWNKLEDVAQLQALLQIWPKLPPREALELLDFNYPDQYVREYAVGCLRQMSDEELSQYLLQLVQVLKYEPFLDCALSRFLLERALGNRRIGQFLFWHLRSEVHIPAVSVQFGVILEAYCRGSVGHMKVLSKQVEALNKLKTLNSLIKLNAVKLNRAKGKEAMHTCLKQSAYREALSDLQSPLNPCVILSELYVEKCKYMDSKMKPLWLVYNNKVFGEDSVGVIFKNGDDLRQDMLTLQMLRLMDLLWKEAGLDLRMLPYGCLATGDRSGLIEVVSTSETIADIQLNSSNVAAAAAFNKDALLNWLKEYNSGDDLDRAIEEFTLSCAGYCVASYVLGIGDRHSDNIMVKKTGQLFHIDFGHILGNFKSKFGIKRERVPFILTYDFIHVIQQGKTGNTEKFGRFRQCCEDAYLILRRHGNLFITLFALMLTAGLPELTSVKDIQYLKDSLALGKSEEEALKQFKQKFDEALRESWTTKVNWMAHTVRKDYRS

Compound	Kd (PI3Kβ)	Kd (PI3Kδ)	Kd (kinase enzymes [1])	Kd (kinase enzymes [2])	Kd (kinase enzymes [3])	IC50 ([4]; Homo sapiens, PC-3, 1 h)	IC50 ([5]; Homo sapiens, PC-3, 1 h)	melting point	IC50 [4]	IC50 [5]
COc1cccc(NC(C)c2cc(C(=O)N3CCOCC3)cc3ncc(N4CCOCC4)nc23)c1 (stereo not drawn) [Compound 121]	10 nM	1590 nM	5370 nM	> 30200 nM	> 30200 nM	347 nM	~331 nM	80 °C	–	–
CNCCNC(=O)c1cc([C@@H](C)Oc2cccc(F)c2)c2nc(N3CCOCC3)cnc2c1 [Compound 122a]	3 nM	660 nM	3700 nM	14100 nM	7970 nM	–	–	116 °C	12 nM	9 nM
CNCCNC(=O)c1cc([C@H](C)Oc2cccc(F)c2)c2nc(N3CCOCC3)cnc2c1 [Compound 123a]	107 nM	5130 nM	10200 nM	17000 nM	11500 nM	–	–	130 °C	> 513 nM	380 nM
CC(Nc1cccc(Br)c1)c1cc(C(=O)N2CCOCC2)cc2ncc(N3CCOCC3)nc12 (stereo not drawn) [Compound 124]	4 nM	575 nM	1070 nM	8130 nM	7760 nM	151 nM	93 nM	80 °C	–	–
CCc1cccc(NC(C)c2cc(C(=O)N3CCOCC3)cc3ncc(N4CCOCC4)nc23)c1 (stereo not drawn) [Compound 125]	68 nM	5890 nM	6460 nM	> 30200 nM	> 30200 nM	> 513 nM	> 513 nM	80 °C	–	–
Cc1cc(C)cc(NC(C)c2cc(C(=O)N3CCOCC3)cc3ncc(N4CCOCC4)nc23)c1 (stereo not drawn) [Compound 126]	13 nM	1290 nM	6920 nM	> 30200 nM	> 30200 nM	427 nM	275 nM	80 °C	–	–
CC(c1cc(C(=O)N2CCOCC2)cc2ncc(N3CCOCC3)nc12)N(CCO)c1cc(F)cc(F)c1 (stereo not drawn) [Compound 129]	3 nM	1070 nM	1780 nM	9770 nM	8910 nM	112 nM	105 nM	80 °C	–	–
CNCCNC(=O)c1cc(C(C)N(C)c2cccc(F)c2)c2nc(N3CCOCC3)cnc2c1 (stereo not drawn) [Compound 130]	0.5 nM	135 nM	363 nM	6170 nM	240 nM	89 nM	65 nM	159 °C	–	–
CC(Nc1cccc(C#N)c1)c1cc(C(=O)N2CCOCC2)cc2ncc(N3CCOCC3)nc12 (stereo not drawn) [Compound 131]	11 nM	2510 nM	3160 nM	> 30200 nM	20000 nM	501 nM	363 nM	80 °C	–	–
CNCCNC(=O)c1cc(C(C)Nc2cc(F)ccc2F)c2nc(N3CCOCC3)cnc2c1 (stereo not drawn) [Compound 132]	0.5 nM	115 nM	832 nM	11500 nM	2190 nM	52 nM	37 nM	80 °C	–	–
CC(Nc1cc(Cl)cc(Cl)c1)c1cc(C(=O)N2CCOCC2)cc2ncc(N3CCOCC3)nc12 (stereo not drawn) [Compound 133]	3 nM	263 nM	5750 nM	> 30200 nM	26300 nM	59 nM	32 nM	80 °C	–	–
COc1cc(NC(C)c2cc(C(=O)N3CCOCC3)cc3ncc(N4CCOCC4)nc23)cc(OC)c1 (stereo not drawn) [Compound 134]	87 nM	6310 nM	> 30200 nM	> 30200 nM	> 30200 nM	> 513 nM	> 513 nM	80 °C	–	–
